# Patent US20230320999A1, “NON-THERAPEUTIC METHODS FOR ALLEVIATING OR REDUCING STRESS SYMPTOMS OF RUMINANTS” (DSM IP Assets B.V., priority 2018, published 2023)
# Tested on: rumen metabolites (Dimethylsulfone)
# Assay: Rumen metabolites in rumen fluid of fistulated steers, quantified by NMR after 21 days of treatment
# Format: in vivo, Brahman steers (Bos indicus)
# Conditions: for Dimethylsulfone in rumen fluid: rumen fluid 3 h post feeding, days 20 and 21, 4 steers; for Change of the methyl donor (dimethylsulfone) in rumen fluid versus control period, in words: 21 days of treatment, Brahman steers
# Excerpt: Eight fistulated Brahman steers (Bos indicus) were randomly allocated to two groups (4 animals per group) and received a forage ad libitum diet (Rhode grass hay (Chloris […]), chemical composition: DM, 917 g/kg fresh matter; in g/kg of DM: OM, 806; CP, 169; NDF, 661; ADF, 359; ADL, 46; ash, 116 and GE 17.38 MJ/kg). […] Animals were adapted to the diet over a 21 d period. After that initial period, experimental animals were placed into individual pens in an animal house for the measurement of intakes (10 d) and were treated with cyclodextrin (2 g/100 kg LW) and molasses (60 mL/d). On the last 2 days animals were placed into open-circuit respiration chambers for collection of rumen samples. […] On days 20 and 21 of treatment both groups were placed in open-circuit respiration chambers for rumen fluid collection. Rumen fluid samples (approx. 60 mL per animal) were collected using a probe with 2 layers of cheesecloth through the cannula of the animal at 3 h post feeding, during confinement in respiration chambers to determine rumen metabolites.
Structure (SMILES),"Dimethylsulfone in rumen fluid (2.5 g propanediol mononitrate/animal/day for 21 days, control period value 20) [μmol/L rumen fluid]","Change of the methyl donor (dimethylsulfone) in rumen fluid versus control period, in words","Dimethylsulfone in rumen fluid (1.6 g chloroform-CD/100 kg LW for 21 days, control period value 21) [μmol/L rumen fluid]"
"O=[N+]([O-])OCCCO [PDMN, 1,3-propanediol mononitrate]",113,statistically significant increase,
"ClC(Cl)Cl [Chloroform, chloroform]",,statistically significant increase,80
